Laboratory results taken from PMC10638401, “Mannich-type modifications of (−)-cannabidiol and (−)-cannabigerol leading to new, bioactive derivatives” (Scientific Reports, 2023).
Values after ≈ are worked out from the molar mass of the structure shown.

Assays:
[1] = test system: Klebsiella pneumoniae carbapenemase-producing bacteria; experiment: Antibacterial effect, broth micro dilution
Method: (§2) According to CLSI guideline the Minimal Inhibitory Concentrations (MICs) of the prepared compounds were determined with the broth micro dilution method. After an overnight growth on 5% bovine blood agar plates at 35 °C bacterial strains were suspended in physiological saline in order to reach the density of 0.5 McFarland for inoculation. Stock solutions containing different concentrations of the substances were prepared in DMSO and H2O (1:1). These were twofold serially diluted from 256 to 0.5 mg/l in Mueller–Hinton broth, and 100 ml of each dilution was inoculated with 10 ml of each bacterial suspension.

[2] = test system: SARS-CoV-2; experiment: SARS-CoV-2 cytopathic effect (CPE) inhibition assay in Vero E6 cells (XTT); format: cell-based; settings: Severe acute respiratory syndrome coronavirus 2, Vero C1008, 72 h; Vero E6 cells, 3 days post-infection, XTT
[3] = test system: Pseudomonas aeruginosa; experiment: Antibacterial effect, broth micro dilution; format: cell-based
[4] = test system: SZ95 sebocytes; experiment: Nile Red-assay, arachidonic acid-induced lipogenesis; format: cell-based, human; settings: 50 μM arachidonic acid, 48 h
Method: (§1) Human immortalized SZ95 sebocytes, originated from human facial sebaceous glands[50] were provided by prof. Christos C. Zouboulis, and were cultured in Sebomed® Basal Medium (Cat. No. F8205; Sigma-Aldrich) supplemented with 10% FBS (Gibco-Thermo Fisher Scientific), 1 mM CaCl2 (Cat. No. C7902; Sigma-Aldrich), 5 ng/ml human epidermal growth factor (Cat. No. E9644; Sigma-Aldrich), and MycoZap™ Plus-CL (1:500; Lonza). The medium was changed every other day, and cells were subcultured at 60–70% confluence.
For quantitative measurement of sebaceous (neutral) lipid content, SZ95 sebocytes (20,000 cells/well) were cultured in 96-well “black well/clear bottom” plates (Cat. No. 655090; Greiner Bio-One, Frickenhausen, Germany), and were treated with compounds in the presence or absence of arachidonic acid (AA; Cat. No. 90010; Cayman Chemical Company, Ann Arbor, MI, USA) or its vehicle (absolute ethanol) as indicated. Subsequently, supernatants were discarded, cells were washed twice with phosphate-buffered saline (PBS; 115 mM NaCl, 20 mM Na2HPO4, pH 7.4; all from Sigma-Aldrich), and 100 µl of a 1 µg/ml Nile Red (Cat. No. N3013; Sigma-Aldrich) solution in PBS was added to each well. The plates were then incubated at 37 °C for 30 min, and fluorescence was measured on FlexStation 3 multimode microplate reader (Molecular Devices, San Francisco, CA, USA). Results, measured in relative fluorescence units, are expressed as percentage of the vehicle (absolute ethanol; Cat. No. 20821.296; VWR International)-treated control regarded as 100%, using 485 nm excitation and 565 nm emission wavelengths.

[5] = test system: multidrug-resistant Acinetobacter baumannii; experiment: Antibacterial effect, broth micro dilution
Method: as §2

[6] = test system: MRSA (Methicillin Resistant Staphylococcus aureus); experiment: MIC, broth micro dilution; settings: Staphylococcus aureus
Method: as §2

[7] = test system: Staphylococcus epidermidis biofilm forming; experiment: MIC, broth micro dilution; settings: Staphylococcus epidermidis
Method: as §2

[8] = test system: Bacillus subtilis; experiment: MIC, broth micro dilution
Method: as §2

[9] = test system: Enterococcus faecalis 15 376 VanA; experiment: MIC, broth micro dilution; settings: Enterococcus faecalis, 15376VANA
Method: as §2

[10] = test system: Enterococcus faecalis 29 212; experiment: MIC, broth micro dilution; settings: Enterococcus faecalis, 29212
[11] = test system: Staphylococcus epidermidis mecA; experiment: MIC, broth micro dilution; settings: Staphylococcus epidermidis
[12] = test system: Escherichia coli; experiment: Antibacterial effect, broth micro dilution; format: cell-based
[13] = test system: SZ95 sebocytes; experiment: Viability MTT-assay on sebocytes, 48 h; format: cell-based, human; settings: 30 μM
Method: as §1
The viability of HaCaT keratinocytes and SZ95 sebocytes was determined by MTT-assay[58] (Cat. No. M5655; Sigma-Aldrich) measuring the conversion of the tetrazolium salt to formazan by mitochondrial dehydrogenases. Cells were plated in 96-well plates (20,000 cells/well), and were treated as indicated. Cells were then incubated with 0.5 mg/ml MTT reagent for 3 h, and concentration of formazan crystals (as an indicator of number of viable cells) was determined colorimetrically at 565 nm by using FlexStation 3 multi-mode microplate reader (Molecular Devices). Results were expressed as percentage of vehicle-treated control regarded as 100%.

[14] = test system: Enterococcus faecalis 51299 VanB; experiment: MIC, broth micro dilution; settings: Enterococcus faecalis, 51299VANB

Structure (SMILES)	antibacterial effect (no effect up to) [1] [µg/mL]	EC50 [2] [µM]	antibacterial effect (no effect up to) [3] [µg/mL]	effect on the lipogenic effect of arachidonic acid (AA) [4]	antibacterial effect (no effect up to) [5] [µg/mL]	MIC [6] [µg/mL]	MIC [7] [µg/mL]	MIC [8] [µg/mL]	MIC [9] [µg/mL]	MIC [10] [µg/mL]	MIC [11] [µg/mL]	antibacterial effect (no effect up to) [12] [µg/mL]	viability (MTT signal intensity) [13]	MIC [14] [µg/mL]
C=C(C)[C@@H]1CCC(C)=C[C@H]1c1c(O)cc(CCCCC)cc1O [Compound 1, (−)-Cannabidiol]	> 256	5.1 ± 0.99	> 256	completely prevent the lipogenic effect	> 256	4 (≈ 12.7 µM)	8 (≈ 25.4 µM)	4 (≈ 12.7 µM)	4 (≈ 12.7 µM)	2 (≈ 6.36 µM)	8 (≈ 25.4 µM)	> 256	cytotoxic effects	4 (≈ 12.7 µM)
C=C(C)[C@@H]1CCC(C)=C[C@H]1c1c(O)cc(CCCCC)c(COCC)c1O [Compound 9]		22 ± 3		mimic this lipostatic effect		> 256	> 256	> 256	128 (≈ 344 µM)	8 (≈ 21.5 µM)	> 256		no such effect on the viability	8 (≈ 21.5 µM)
